Key:
[1] = system: Pseudomonas aeruginosa (ATCC 27853); test: Protocol 1 kill curve / MIC, 1 hour at 37° C. in glass tubes; assay type: cell-based
Procedure: This protocol is used to develop dose-response (kill) curves to calculate the minimal inhibitory concentration of an indolicidin (e.g., L-indolicidin (L-IND)) when formulated in a commercially available phosphate buffered saline (PBS) solution. In addition, for comparative purposes, kill curves are established for the following three commonly available commercial lens-care products containing different preservatives:
An initial dose range experiment is performed to determine a suitable dose range for the final experiment. The indolicidin (e.g., L-IND) is tested in the preliminary toxicity experiment at 13 different dose levels in a range between 500 μg/ml and 0.125 μg/ml. The 3 control samples with preservatives are tested at 13 different dose levels with the highest dose level representing the undiluted solution. […]
Viable counts of the bacteria are performed by 10-fold serial dilutions in sterile PBS and by plating 0.1 ml aliquots on nutrient agar plates. […] The plates are incubated overnight at 37° C. and colonies are counted and recorded. […]
Survival is expressed as number of surviving bacteria (CFU/ml) for each dilution of the test article and control solutions. The lowest dose of the test article that results in complete kill of the test organism, compared to the non-exposed control, is determined to be the MIC value. […]

[2] = Toxicity study, intraperitoneal administration
Procedure: The objective of this study was to determine if the treatment regimen proposed for the efficacy study of the defensin formulations caused target organ toxicity. This study is not intended to support application for research or marketing permits for products regulated by governmental agencies. The purpose of this study is to provide range-finding data is therefore, not within the scope of Good Laboratory Practice Guidelines.
Mice were treated by intravaginal administration twice daily at ˜12 hour intervals administered on Days 1 through 4. Mice were treated intraperitoneally three times on Day 1 at ˜4 hour intervals, and twice daily at ˜12 hour intervals administered on days 2 through 4.
Dosing volumes were 0.1 mL/mouse (intravaginal), 0.1 mL/mouse (intraperitoneal), and 20 μL/rabbit. The study lasted 5 days, with day 1 the first day of dose administration.
The dose formulations were supplied in pyrogen-free saline.

## CC[C@H](C)[C@H](N)C(=O)N[C@@H](CC(C)C)C(=O)N1CCC[C@H]1C(=O)N[C@@H](Cc1c[nH]c2ccccc12)C(=O)N[C@@H](CCCCN)C(=O)N[C@@H](Cc1c[nH]c2ccccc12)C(=O)N1CCC[C@H]1C(=O)N[C@@H](Cc1c[nH]c2ccccc12)C(=O)N[C@@H](Cc1c[nH]c2ccccc12)C(=O)N1CCC[C@H]1C(=O)N[C@@H](Cc1c[nH]c2ccccc12)C(=O)N[C@@H](CCCNC(=N)N)C(=O)N[C@@H](CCCNC(=N)N)C(N)=O [L-indolicidin, H2N-ILPWKWPWWPWRR-CONH2]
[1]; all dose levels 100-6.25 μg/ml, 10 mM phosphate buffer pH 7.4, 2.01×10^5 CFU/ml
  survival: 100%
[1]; all dose levels 5,000-1.25 μg/ml in PBS, 1 hour 37° C., 5.9×10^5 CFU/ml
  survival: 100%
[2]; 0.1 mL/mouse at 10, 100 or 1000 μg/mL, BPN-A-amide at 30, 300 or 3000 μg/mL
  gross alterations: no gross alternations
[2]; L-indolicidin 10, 100 or 1000 μg/mL, D-indolicidin 10 or 1000 μ/mL, All-Phe-indolicidin 10 μg/mL, BPN-A-amide 30, 300 or 3000 μg/mL
  deaths or clinical signs of toxicity: no deaths or biologically significant clinical signs of toxicity

Source: patent US6482799B1, “Self-preserving multipurpose ophthalmic solutions incorporating a polypeptide antimicrobial” (The Regents of the University of California, priority 1999, dated 2002)
